In ChEMBL document CHEMBL5365457, “Selective HDAC3 Inhibitors with Potent In Vivo Antitumor Efficacy against Triple-Negative Breast Cancer” (J Med Chem, 2023):
Active and inactive are the calls of the source. The calls are words filed in the database; no cut-off is given here.

Assays:
[1] = molecular target: T1, Histone deacetylase 2 (Homo sapiens, UniProt Q92769); assay: Inhibition of human recombinant HDAC2 at 1 uM incubated for 30 mins by fluorescence based microplate assay relative to control
T1 sequence (Q92769 whole entry): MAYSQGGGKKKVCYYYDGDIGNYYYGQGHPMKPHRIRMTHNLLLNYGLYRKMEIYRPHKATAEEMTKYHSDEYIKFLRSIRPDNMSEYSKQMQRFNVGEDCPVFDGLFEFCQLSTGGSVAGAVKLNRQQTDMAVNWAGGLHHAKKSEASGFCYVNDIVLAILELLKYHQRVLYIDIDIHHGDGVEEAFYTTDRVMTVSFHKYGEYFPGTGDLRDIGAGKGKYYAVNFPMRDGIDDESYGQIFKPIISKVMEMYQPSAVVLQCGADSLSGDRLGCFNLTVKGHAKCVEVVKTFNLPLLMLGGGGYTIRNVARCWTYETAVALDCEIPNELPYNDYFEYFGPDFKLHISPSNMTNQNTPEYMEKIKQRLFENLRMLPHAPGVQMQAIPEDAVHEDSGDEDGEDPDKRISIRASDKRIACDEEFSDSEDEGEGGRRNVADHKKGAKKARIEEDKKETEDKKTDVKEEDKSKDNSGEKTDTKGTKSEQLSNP

[2] = tested on: MCF7; assay: Cytotoxicity against human MCF7 cells assessed as inhibition of cell growth incubated for 72 hrs by MTT assay; assay type: functional, cell-based; settings: MCF7, 72 h
[3] = tested on: MDA-MB-231; assay: Cytotoxicity against human MDA-MB-231 cells assessed as inhibition of cell growth incubated for 72 hrs by MTT assay; assay type: functional, cell-based; settings: MDA-MB-231, 72 h
[4] = Cytotoxicity against human MCF-10A cells assessed as inhibition of cell growth incubated for 72 hrs by MTT assay; assay type: toxicity, cell-based
[5] = Cytotoxicity against human HEK293 cells assessed as inhibition of cell growth incubated for 72 hrs by MTT assay; assay type: toxicity, cell-based
[6] = Cmax in Wistar rat at 5 mg/kg, ip measured upto 24 hrs by HPLC analysis; assay type: ADME, organism-based; set-up: time < 24 hrs, dose 5 mg/kg, route ip; settings: in vivo
[7] = Apparent oral clearance in Wistar rat at 15 mg/kg, ip measured upto 24 hrs by HPLC analysis; assay type: ADME, organism-based; settings: in vivo
[8] = AUMC (0 to infinity) in Wistar rat at 15 mg/kg, ip measured upto 24 hrs by HPLC analysis; assay type: ADME, organism-based; settings: in vivo
[9] = molecular target: T1, Histone deacetylase 2; assay: Inhibition of human recombinant HDAC2 incubated for 30 mins by fluorescence based microplate analysis
[10] = Selectivity ratio of IC50 for cytotoxicity against human MCF-10A cells assessed as inhibition of cell growth to IC50 for cytotoxicity against human MDA-MB-231 cells assessed as inhibition of cell growth; assay type: toxicity, cell-based; settings: MCF-10A cells versus MDA-MB-231 cells, read-out: Ratio IC50
[11] = Selectivity ratio of IC50 for cytotoxicity against human HCEC cells assessed as inhibition of cell growth to IC50 for cytotoxicity against human MDA-MB-453 cells assessed as inhibition of cell growth; assay type: toxicity, cell-based; settings: HCEC cells versus MDA-MB-453 cells, read-out: Ratio IC50
[12] = tested on: 4T1; assay: Induction of apoptosis in mouse 4T1 cells assessed as increase in cleaved caspase-3 level by Western blot analysis; assay type: functional, cell-based; settings: dose 1.0 µM
[13] = tested on: 4T1; assay: Induction of apoptosis in mouse 4T1 cells assessed as increase caspase 3/7 level at 1 uM by Western blot analysis; assay type: functional, cell-based
[14] = tested on: 4T1; assay: Induction of apoptosis in mouse 4T1 cells at 2.75 uM incubated for 72 hrs by annexin/PI staining based flow cytometry analysis (reference value: 1.35%); assay type: functional
[15] = tested on: 4T1; assay: Cell cycle arrest in mouse 4T1 cells assessed as accumulation of cells at G2/M phase at 550 nM incubated for 72 hrs by flow cytometry; assay type: functional
[16] = tested on: 4T1; assay: Induction of apoptosis in mouse 4T1 cells assessed as cell shrinkage incubated for 72 hrs by acridine orange staining based analysis; assay type: functional
[17] = tested on: MDA-MB-231; assay: Cytotoxicity against wild type human MDA-MB-231 cells assessed as reduction in cell viability incubated for 72 hrs in presence of oxaliplatin by MTT assay; assay type: functional, cell-based; settings: MDA-MB-231, 72 h
[18] = Cytotoxicity against Oxaliplatin-resistant human MDA-MB-231 cell assessed as reduction in cell viability incubated for 72 hrs in presence of oxaliplatin by MTT assay; assay type: functional, cell-based; settings: Oxaliplatin-resistant MDA-MB-231 cell
[19] = tested on: 4T1; assay: Antitumor activity against mouse 4T1 cells implanted in BALB/c mouse assessed as reduction in tumor growth at 5 to 15 mg/kg, ip administered 5 times a week for 21 days; assay type: functional, organism-based; settings: dose 5-15 mg/kg, time 21.0 day
[20] = tested on: 4T1; assay: Antitumor activity against mouse 4T1 cells implanted in BALB/c mouse assessed as reduction in tumor volume at 15 mg/kg, ip administered 5 times a week for 21 days (reference value: 52.05+/-12.35 mm3); assay type: functional; settings: time 21 day
[21] = Toxicity against BALB/c mouse implanted with mouse 4T1 cells assessed as body weight loss at 5 to 15 mg/kg,ip administered 5 times a week for 21 days; assay type: organism-based; settings: in vivo, 504 h, dose 5-15 mg/kg, time 21 day
[22] = tested on: 4T1; assay: Antitumor activity against mouse 4T1 cells implanted in BALB/c mouse assessed as reduction in tumor weight at 15 mg/kg, ip administered 5 times a week for 21 days; assay type: functional; settings: time 21 day
[23] = tested on: 4T1; assay: Antitumor activity against mouse 4T1 cells implanted in BALB/c mouse assessed as tumor growth inhibition at 15 mg/kg, ip measured on day 14; assay type: functional; settings: 4T1, 336 h, time 14 day, read-out: TGI
[24] = tested on: Mus musculus; assay: Induction of ROS generation in mouse implanted with mouse 4T1 cells at 5 mg/kg, ip administered for 21 days by DCFH-DA staining based microscopic analysis; assay type: functional, organism-based; settings: time 21.0 day
[25] = tested on: 4T1; assay: Antitumor activity against mouse 4T1 cells implanted in BALB/c mouse assessed as increase in apoptosis in tumor tissue at 5 to 15 mg/kg, ip by TUNEL staining based microscopic analysis; assay type: functional, organism-based; settings: dose 5-15 mg/kg
[26] = tested on: 4T1; assay: Antitumor activity against mouse 4T1 cells implanted in BALB/c mouse assessed as reduction in Ki-67 expression in tumor tissue at 5 to 15 mg/kg, ip measured for 21 days by fluorescence based microscopic analysis; assay type: functional, organism-based; settings: dose 5-15 mg/kg, time 21.0 day
[27] = tested on: 4T1; assay: Antitumor activity against mouse 4T1 cells implanted in BALB/c mouse assessed as reduction in lung metastasis at 5 to 15 mg/kg, ip measured for 7 days by fluorescence based assay; assay type: functional, organism-based; settings: dose 5-15 mg/kg, time 7.0 day
[28] = Toxicity in BALB/c mouse implanted with mouse 4T1 cells assessed as effect on cell shape in spleen at 5 to 15 mg/kg, ip measured after 21 days by H and E staining based assay; assay type: organism-based; settings: in vivo, 504 h, dose 5-15 mg/kg, time 21 day
[29] = Toxicity in BALB/c mouse implanted with mouse 4T1 cells assessed as effect on cell size in liver at 5 to 15 mg/kg, ip measured after 21 days by H and E staining based assay; assay type: organism-based; settings: in vivo, 504 h, dose 5-15 mg/kg, time 21 day
[30] = Toxicity in BALB/c mouse implanted with mouse 4T1 cells assessed as effect on cell size in kidney at 5 to 15 mg/kg, ip measured after 21 days by H and E staining based assay; assay type: organism-based; settings: in vivo, 504 h, dose 5-15 mg/kg, time 21 day
[31] = Toxicity in BALB/c mouse implanted with mouse 4T1 cells assessed as liver fibrosis at 5 to 15 mg/kg, ip measured after 21 days; assay type: organism-based; settings: in vivo, 504 h, dose 5-15 mg/kg, time 21 day
[32] = Toxicity in BALB/c mouse implanted with mouse 4T1 cells assessed as kidney fibrosis at 5 to 15 mg/kg, ip measured after 21 days; assay type: organism-based; settings: in vivo, 504 h, dose 5-15 mg/kg, time 21 day
[33] = tested on: 4T1; assay: In-vivo inhibition of HDAC3 in BALB/c mouse implanted with mouse 4T1 cells assessed as increase in acetylation of SMC3 level at 5 to 15 mg/kg, ip by Western blot analysis; assay type: functional, organism-based; settings: dose 5-15 mg/kg
[34] = tested on: 4T1; assay: Antitumor activity against mouse 4T1 cells implanted in BALB/c mouse assessed as upregulation of cytochrome c level in tumor at 5 to 15 mg/kg, ip by Western blot analysis; assay type: functional, organism-based; settings: dose 5-15 mg/kg
[35] = tested on: 4T1; assay: Antitumor activity against mouse 4T1 cells implanted in BALB/c mouse assessed as downregulation of Bcl-2 level in tumor at 5 to 15 mg/kg, ip by Western blot analysis; assay type: functional, organism-based; settings: dose 5-15 mg/kg
[36] = tested on: 4T1; assay: Antitumor activity against mouse 4T1 cells implanted in BALB/c mouse assessed as reduction in CD44 protein level in tumor at 5 to 15 mg/kg, ip by Western blot analysis; assay type: functional, organism-based; settings: dose 5-15 mg/kg

Work on `CCCNNC(=O)c1cnc(NCc2ccc(OC)cc2)cn1` yielded an inhibition [1] of less than 17%, an IC50 [2] of 950 nM and an IC50 [3] of 740 nM. The IC50 at 72 h [4] was 212 µM, the IC50 at 72 h [5] was 239 µM and the Cmax [6] was 1110 ng/mL. The CL/F [7] was 1.3 (mg/kg)/(ug/ml).hr, the AUMC [8] was 114.5 ug/ml.hr^2 and the IC50 [9] was 1700 nM. The selectivity ratio [10] was 385, the selectivity ratio [11] was 286 and the Activity [12] was “Dose-Dependent Effect”. For the same compound, the Activity [13] was “Active”, the Activity [14] was 94.6% and the Activity [15] was 52.6%. The Activity [16] was “Active”, the IC50 [17] was 403 nM and the IC50 [18] was 447 nM. The Activity [19] was “Active”, the Activity [20] was 101.23 mm3 and the Activity [21] was “Non-Toxic”. The Activity [22] was 1.78 g, the inhibition in vivo at 15 mg/kg [23] was 97.3% and the Activity [24] was “Active”. The Activity [25] was “Active”, the Activity [26] was “Active” and the Activity [27] was “Active”. For the same compound, the Activity [28] was “Non-Toxic”, the Activity [29] was “Non-Toxic” and the Activity [30] was “Non-Toxic”. For the same compound, the Activity [31] was “Non-Toxic”, the Activity [32] was “Non-Toxic” and the inhibition [33] was “Active”. For the same compound, the Activity [34] was “Active”, the Activity [35] was “Active” and the Activity [36] was “Active”.
